Reference: article PMC5013724 (Biochemistry, 2016)
≈ marks a conversion by molar mass, not a printed value. Entries after “also recorded” stand apart in the source; their conditions may differ. Where two headings read alike, the source gives them in different places.

What was measured:
wild-type PR = conditions: read-out: Inhibition of PR Ki, published sources, similar values from different sources averaged, ref [48]–[50],[30]; cited from earlier work
[1] = biological target: TFR-PR^S17 precursor, p6pol/PR^S17 site (Human immunodeficiency virus type 1, UniProt P12497, E523D/G536V/I542V/L578M/M524I/M534L/N525D/V570S, form not given); type: biochemical, HIV-1; conditions: for Autoprocessing in the presence of inhibitor / Inhibition of the p6pol/PR site: 60 min; for Inhibition of autoprocessing of TFR-PR^S17, initial screening: after 60 min, overall autoprocessing
[2] = tested on: TFR-PR^S17 precursor, p6pol/PR^S17 site; type: biochemical, HIV-1; conditions: p6pol/PR^S17 site
mature PR^S17 [3] = tested on: mature PR^S17
PR20 = conditions: read-out: Ki for PR20; ref [34]; cited from earlier work
physchem = conditions: pH 5, aqueous buffer
mature PR^S17 [4] = type: biochemical, HIV-1; conditions: Ki for PR^S17 (kinetics) / Ki for PR
TFR-PR20 = conditions: up to 150 μM inhibitor, expressed in E. coli; ref [16]; cited from earlier work
[5] = tested on: wild type TFR-PR precursor; conditions: read-out: IC50 for inhibition of autoprocessing of the wild type precursor; during expression in E. coli; ref [16]; cited from earlier work
[6] = biological target: TFR-PR^S17 precursor, TFP/p6pol site (Human immunodeficiency virus type 1, UniProt P12497, E523D/G536V/I542V/L578M/M524I/M534L/N525D/V570S, form not given); type: biochemical, HIV-1; conditions: 60 min
[7] = inhibitor 70 μM (limit of solubility)

SMILES: CC(C)CN(C[C@@H](O)[C@H](Cc1ccccc1)NC(=O)O[C@H]1CCOC1)S(=O)(=O)c1ccc(N)cc1 [APV, amprenavir]
- Ki (wild-type PR): 0.2 nM
- Autoprocessing in the presence of inhibitor ([1]; inhibitor 5 μM): complete autoprocessing
- Inhibition of autoprocessing of TFR-PR^S17, initial screening ([1]; inhibitor 50 μM): almost complete inhibition
- Difference in inhibition [autoprocessing, IC50/mature PR^S17, Ki] [2]: 682
- Fold higher affinity for PR^S17 relative to PR20 (mature PR^S17 [3]): 16 fold
- Relative resistance (PR^S17/PR) (mature PR^S17 [3]; Ki for PR^S17 (ITC) / Ki for PR): 55
- Ki (PR20): ~178 nM

SMILES: COC(=O)N[C@H](C(=O)N[C@@H](Cc1ccccc1)[C@@H](O)CN(Cc1ccc(-c2ccccn2)cc1)NC(=O)[C@@H](NC(=O)OC)C(C)(C)C)C(C)(C)C [ATV, atazanavir]
- solubility (physchem): 42 µM (≈ 29.6 µg/mL)
- Ki (wild-type PR): 0.035 nM
- Autoprocessing in the presence of inhibitor ([1]; inhibitor 10 μM): complete autoprocessing
- Difference in inhibition [autoprocessing, IC50/mature PR^S17, Ki] [2]: 214
- Relative resistance (PR^S17/PR) (mature PR^S17 [4]): 2000

SMILES: CC(C)CN(C[C@@H](O)[C@H](Cc1ccccc1)NC(=O)O[C@H]1CO[C@H]2OCC[C@H]21)S(=O)(=O)c1ccc(N)cc1 [DRV, darunavir]
- Inhibition of autoprocessing of the PR20 precursor (TFR-PR20): no inhibition; also recorded: not inhibited
- Ki (wild-type PR): 0.005 nM
- Inhibition of autoprocessing of TFR-PR^S17, initial screening ([1]; inhibitor 50 μM): almost complete inhibition
- IC50 [5]: 1000 to 2000 nM

SMILES: CC(C)(C)NC(=O)[C@@H]1CN(Cc2cccnc2)CCN1C[C@@H](O)C[C@@H](Cc1ccccc1)C(=O)N[C@H]1c2ccccc2C[C@H]1O [IDV, indinavir]
- Inhibition of the TFP/p6pol site ([6]; inhibitor 50 μM): insignificant inhibition
- Ki (wild-type PR): 0.25 nM
- Inhibition of the p6pol/PR site ([1]; inhibitor 50 μM): ~ 50%
- Inhibition of autoprocessing of TFR-PR^S17, initial screening ([1]; inhibitor 50 μM): partial inhibition

SMILES: Cc1cccc(C)c1OCC(=O)N[C@@H](Cc1ccccc1)[C@@H](O)C[C@H](Cc1ccccc1)NC(=O)[C@H](C(C)C)N1CCCNC1=O [LPV, lopinavir]
- Inhibition of the TFP/p6pol site [6, 7]: insignificant inhibition
- solubility (physchem): 70 µM (≈ 44 µg/mL)
- Ki (wild-type PR): 0.02 nM
- Inhibition of autoprocessing of TFR-PR^S17, initial screening ([1]; inhibitor 50 μM): almost no inhibition
- Inhibition of the p6pol/PR site [1, 7]: ~ 50%

SMILES: Cc1c(O)cccc1C(=O)N[C@@H](CSc1ccccc1)[C@H](O)CN1C[C@H]2CCCC[C@H]2C[C@H]1C(=O)NC(C)(C)C [NFV, nelfinavir]
- solubility (physchem): 42 µM (≈ 23.8 µg/mL)
- Ki (wild-type PR): 0.36 nM
- Difference in inhibition [autoprocessing, IC50/mature PR^S17, Ki] [2]: >7.2
- Relative resistance (PR^S17/PR) (mature PR^S17 [4]): 16300

SMILES: CC(C)c1nc(CN(C)C(=O)N[C@H](C(=O)N[C@@H](Cc2ccccc2)C[C@H](O)[C@H](Cc2ccccc2)NC(=O)OCc2cncs2)C(C)C)cs1 [RTV, ritonavir]
- Inhibition of autoprocessing of TFR-PR^S17, initial screening ([1]; inhibitor 50 μM): almost no inhibition

SMILES: CC(C)(C)NC(=O)[C@@H]1C[C@@H]2CCCC[C@@H]2CN1C[C@@H](O)[C@H](Cc1ccccc1)NC(=O)[C@H](CC(N)=O)NC(=O)c1ccc2ccccc2n1 [SQV, saquinavir]
- Inhibition of autoprocessing of the PR20 precursor (TFR-PR20): no inhibition; also recorded: not inhibited
- Ki (wild-type PR): 0.39 nM
- Inhibition of autoprocessing of TFR-PR^S17, initial screening ([1]; inhibitor 50 μM): almost no inhibition
- IC50 [5]: 1000 to 2000 nM
